Results taken from PMC12356143 (RSC Medicinal Chemistry, 2025).
“And” between values parts separate entries of the source, which are not always exact repeats. Equal entries are not always repeated.

Tests used:
M^pro L50F/E166A/L167F = M^pro L50F/E166A/L167F (Severe acute respiratory syndrome coronavirus 2, UniProt P0DTD1, E3429A/L3313F/L3430F); conditions: for K M / k cat: pH 7.6
[1] = target: SARS-CoV-2 M^pro L50F/E166A/L167F (Severe acute respiratory syndrome coronavirus 2, UniProt P0DTD1, E3429A/L3313F/L3430F); assay type: biochemical

Compound | Km (M^pro L50F/E166A/L167F) | K M (M^pro L50F/E166A/L167F) | k cat (M^pro L50F/E166A/L167F) | inhibition of L50F/E166A/L167F, result in words [1] | also measured
2-Abz-SVTLQ↓SGY^(NO2)R-OH | 320 µM | 320 µM | 0.26 s⁻¹ and 0.26 ± 0.05 s⁻¹ | – | lower catalytic efficiency of the M^pro triple mutant compared to the WT M^pro (M^pro L50F/E166A/L167F): ~35 times
COc1cccc2[nH]c(C(=O)NC(CC3CC3)C(=O)NC(CC3CCNC3=O)C(O)S(=O)(=O)O)cc12 (centres unmarked) [compound 4] | – | – | – | – | improvement in inhibition compared to nirmatrelvir [1]: approximately 30 fold
2-Abz-KTSAVLQ↓SGY^(NO2)RKME-OH | 250 µM | 250 µM | 0.19 ± 0.04 s⁻¹ | – | –
O=C(NC(Cc1ccccc1)C(=O)NC(CC1CCNC1=O)C(O)S(=O)(=O)O)OCc1cccc(F)c1 (centres unmarked) [compound 3] | – | – | – | inactive | –
COc1cccc2[nH]c(C(=O)N3C[C@H](C(F)(F)F)C[C@H]3C(=O)N[C@H](C#N)C[C@@H]3CCNC3=O)cc12 [compound 1] | – | – | – | inactive | –
CC(C)C[C@H](NC(=O)OCc1cccc(F)c1)C(=O)N[C@@H](Cc1cscn1)C(O)S(=O)(=O)O (some centres unmarked) [compound 2] | – | – | – | does not significantly alter binding potency | –
